Laboratory results: the NIST ThermoML archive (doi:10.1016/j.jct.2017.02.022)
Numbers after ± are expanded uncertainties.

Legend:
[1] = xn = mol fraction of the nth substance listed; conditions: 101.3 kPa, Liquid; for speed of sound: Frequency=3 MHz, Sing-around technique in a fixed-path interferometer; for mass density: Vibrating tube method
[2] = refractive index (Na D-line) (dimensionless); xn = mol fraction of the nth substance listed; conditions: 101.3 kPa, Liquid, Standard Abbe refractometry

CCn1cc[n+](C)c1.COS(=O)(=O)[O-] [1-ethyl-3-methylimidazolium methylsulfate] + CCCO
speed of sound ([1]; 298 K, x1 = 0.059): 1247 ± 20 m/s | speed of sound ([1]; 298 K, x1 = 0.228): 1377 ± 20 m/s | speed of sound ([1]; 298 K, x1 = 0.375): 1487 ± 20 m/s | speed of sound ([1]; 298 K, x1 = 0.524): 1588 ± 20 m/s | speed of sound ([1]; 298 K, x1 = 0.72): 1681 ± 20 m/s | speed of sound ([1]; 298 K, x1 = 0.874): 1730 ± 20 m/s | speed of sound ([1]; 298 K, x1 = 1): 1762 ± 20 m/s | mass density ([1]; 298 K, x1 = 0.059): 864 ± 3 kg/m3 | mass density ([1]; 298 K, x1 = 0.228): 1003 ± 3 kg/m3 | mass density ([1]; 298 K, x1 = 0.375): 1090 ± 2 kg/m3 | mass density ([1]; 298 K, x1 = 0.524): 1156 ± 2 kg/m3 | mass density ([1]; 298 K, x1 = 0.72): 1223 ± 2 kg/m3 | mass density ([1]; 298 K, x1 = 0.874): 1264 ± 2 kg/m3 | mass density ([1]; 298 K, x1 = 1): 1292 ± 2 kg/m3 | speed of sound ([1]; 303 K, x1 = 0.059): 1230 ± 20 m/s | speed of sound ([1]; 303 K, x1 = 0.228): 1362 ± 20 m/s | speed of sound ([1]; 303 K, x1 = 0.375): 1473 ± 20 m/s | speed of sound ([1]; 303 K, x1 = 0.524): 1574 ± 20 m/s | speed of sound ([1]; 303 K, x1 = 0.72): 1668 ± 20 m/s | speed of sound ([1]; 303 K, x1 = 0.874): 1717 ± 20 m/s | speed of sound ([1]; 303 K, x1 = 1): 1750 ± 20 m/s | mass density ([1]; 303 K, x1 = 0.059): 859 ± 3 kg/m3 | mass density ([1]; 303 K, x1 = 0.228): 998 ± 3 kg/m3 | mass density ([1]; 303 K, x1 = 0.375): 1085 ± 2 kg/m3 | mass density ([1]; 303 K, x1 = 0.524): 1152 ± 2 kg/m3 | mass density ([1]; 303 K, x1 = 0.72): 1219 ± 2 kg/m3 | mass density ([1]; 303 K, x1 = 0.874): 1260 ± 2 kg/m3 | mass density ([1]; 303 K, x1 = 1): 1289 ± 2 kg/m3 | speed of sound ([1]; 308 K, x1 = 0.059): 1214 ± 20 m/s | speed of sound ([1]; 308 K, x1 = 0.228): 1347 ± 20 m/s | speed of sound ([1]; 308 K, x1 = 0.375): 1458 ± 20 m/s | speed of sound ([1]; 308 K, x1 = 0.524): 1560 ± 20 m/s | speed of sound ([1]; 308 K, x1 = 0.72): 1654 ± 20 m/s | speed of sound ([1]; 308 K, x1 = 0.874): 1704 ± 20 m/s | speed of sound ([1]; 308 K, x1 = 1): 1739 ± 20 m/s | mass density ([1]; 308 K, x1 = 0.059): 855 ± 3 kg/m3 | mass density ([1]; 308 K, x1 = 0.228): 993 ± 3 kg/m3 | mass density ([1]; 308 K, x1 = 0.375): 1080 ± 2 kg/m3 | mass density ([1]; 308 K, x1 = 0.524): 1148 ± 2 kg/m3 | mass density ([1]; 308 K, x1 = 0.72): 1215 ± 2 kg/m3 | mass density ([1]; 308 K, x1 = 0.874): 1257 ± 2 kg/m3 | mass density ([1]; 308 K, x1 = 1): 1285 ± 2 kg/m3 | speed of sound ([1]; 313 K, x1 = 0.059): 1197 ± 20 m/s | speed of sound ([1]; 313 K, x1 = 0.228): 1332 ± 20 m/s | speed of sound ([1]; 313 K, x1 = 0.375): 1443 ± 20 m/s | speed of sound ([1]; 313 K, x1 = 0.524): 1546 ± 20 m/s | speed of sound ([1]; 313 K, x1 = 0.72): 1641 ± 20 m/s | speed of sound ([1]; 313 K, x1 = 0.874): 1692 ± 20 m/s | speed of sound ([1]; 313 K, x1 = 1): 1727 ± 20 m/s | mass density ([1]; 313 K, x1 = 0.059): 851 ± 3 kg/m3 | mass density ([1]; 313 K, x1 = 0.228): 989 ± 3 kg/m3 | mass density ([1]; 313 K, x1 = 0.375): 1076 ± 2 kg/m3 | mass density ([1]; 313 K, x1 = 0.524): 1143 ± 2 kg/m3 | mass density ([1]; 313 K, x1 = 0.72): 1211 ± 2 kg/m3 | mass density ([1]; 313 K, x1 = 0.874): 1253 ± 2 kg/m3 | mass density ([1]; 313 K, x1 = 1): 1282 ± 2 kg/m3 | refractive index ([2]; 298 K, x1 = 0.059): 1.394 ± 0.01 | refractive index ([2]; 298 K, x1 = 0.228): 1.419 ± 0.01 | refractive index ([2]; 298 K, x1 = 0.375): 1.435 ± 0.01 | refractive index ([2]; 298 K, x1 = 0.524): 1.448 ± 0.01 | refractive index ([2]; 298 K, x1 = 0.72): 1.463 ± 0.01 | refractive index ([2]; 298 K, x1 = 0.874): 1.473 ± 0.01 | refractive index ([2]; 298 K, x1 = 1): 1.48 ± 0.01 | refractive index ([2]; 303 K, x1 = 0.059): 1.393 ± 0.01 | refractive index ([2]; 303 K, x1 = 0.228): 1.417 ± 0.01 | refractive index ([2]; 303 K, x1 = 0.375): 1.433 ± 0.01 | refractive index ([2]; 303 K, x1 = 0.524): 1.446 ± 0.01 | refractive index ([2]; 303 K, x1 = 0.72): 1.461 ± 0.01 | refractive index ([2]; 303 K, x1 = 0.874): 1.471 ± 0.01 | refractive index ([2]; 303 K, x1 = 1): 1.479 ± 0.01 | refractive index ([2]; 308 K, x1 = 0.059): 1.391 ± 0.01 | refractive index ([2]; 308 K, x1 = 0.228): 1.415 ± 0.01 | refractive index ([2]; 308 K, x1 = 0.375): 1.431 ± 0.01 | refractive index ([2]; 308 K, x1 = 0.524): 1.444 ± 0.01 | refractive index ([2]; 308 K, x1 = 0.72): 1.459 ± 0.01 | refractive index ([2]; 308 K, x1 = 0.874): 1.469 ± 0.01 | refractive index ([2]; 308 K, x1 = 1): 1.478 ± 0.01 | refractive index ([2]; 313 K, x1 = 0.059): 1.389 ± 0.01 | refractive index ([2]; 313 K, x1 = 0.228): 1.413 ± 0.01 | refractive index ([2]; 313 K, x1 = 0.375): 1.428 ± 0.01 | refractive index ([2]; 313 K, x1 = 0.524): 1.442 ± 0.01 | refractive index ([2]; 313 K, x1 = 0.72): 1.457 ± 0.01 | refractive index ([2]; 313 K, x1 = 0.874): 1.468 ± 0.01 | refractive index ([2]; 313 K, x1 = 1): 1.476 ± 0.01
